Measurements from PubChem BioAssay (NCI).
Where “and” joins values, the source holds several entries; their conditions need not be identical. Identical values can stand only once.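 Test compounds were applied to cells in 96-well plates for 48 hours at 5 doses. GI50 is the concentration that inhibits growth by half. Definition used: TGI = concentration required for complete inhibition of growth.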

Legend:
Assay in all cases: NCI tumour cell line growth inhibition, 48 h
HCT-116 colon = system: HCT-116 colon
HS 578T breast = system: HS 578T breast
NCI-H226 lung = system: NCI-H226 lung
SF-295 CNS = system: SF-295 CNS
OVCAR-3 ovarian = system: OVCAR-3 ovarian
OVCAR-4 ovarian = system: OVCAR-4 ovarian
NCI-H522 lung = system: NCI-H522 lung
BT-549 breast = system: BT-549 breast
NCI-H23 lung = system: NCI-H23 lung
NCI-H460 lung = system: NCI-H460 lung

Structure (SMILES) | TGI (HCT-116 colon) | TGI (HS 578T breast) | GI50 (NCI-H226 lung) | TGI (NCI-H226 lung) | GI50 (SF-295 CNS) | TGI (SF-295 CNS) | GI50 (OVCAR-3 ovarian) | TGI (OVCAR-3 ovarian) | TGI (OVCAR-4 ovarian) | TGI (NCI-H522 lung) | TGI (BT-549 breast) | TGI (NCI-H23 lung) | TGI (NCI-H460 lung) | GI50 (HCT-116 colon) [µM] | GI50 (HS 578T breast) [µM] | GI50 (OVCAR-4 ovarian) [µM] | GI50 (NCI-H522 lung) [µM] | GI50 (BT-549 breast) [µM] | GI50 (NCI-H23 lung) [µM] | GI50 (NCI-H460 lung) [µM]
CC(=O)O[C@H]1CC2C(C3CC[C@H](C(C)CCC(=O)O)[C@]31C)[C@H](OC(C)=O)C[C@@H]1CC3(CC[C@]21C)OOC1(CCC(C)CC1)OO3 (stereo not given in full) | 13.9 µM and 5.9 µM | 13.8 µM and 4.77 µM | 4.56 µM and 2.11 µM | 22.8 µM and 5.34 µM | 7.46 µM and 2.25 µM | 19.8 µM and 5.53 µM | 4.65 µM and 2.13 µM | 16.4 µM and 5.44 µM | 12.2 µM and 5.77 µM | 12.3 µM and 3.48 µM | 15.1 µM and 7.14 µM | 15.8 µM and 5.43 µM | 16.7 µM and 7.64 µM | – | – | – | – | – | – | –
N#CC(C#N)=C/C=C(\Sc1ccc(Cl)cc1)c1ccc(F)cc1 | 0.508 µM | 22.8 µM | 2.72 µM | 17.8 µM | 2.74 µM | 9.94 µM | 0.31 µM | 2.6 µM | 60.3 µM | > 47.6 µM | 6.22 µM | 2.05 µM | > 100 µM | 0.0671 | 2.75 | 19.5 | 2.8 | 1.16 | 0.528 | 2.31
NC(N)=NCCCC(NCc1c2ccccc2nc2ccccc12)C(=O)O (stereo not given) | > 100 µM | > 100 µM | – | > 100 µM | – | > 100 µM | – | > 100 µM | > 84.7 µM | 69.9 µM | > 100 µM | > 100 µM | > 100 µM | – | – | – | – | – | – | –
O=C(c1cccs1)c1c(C(F)(F)F)n([O-])c2cc(Cl)c(Cl)cc2[n+]1=O | 0.913 µM | 4.11 µM | 1.96 µM | 3.79 µM | 0.51 µM | 1.32 µM | 0.668 µM | 1.82 µM | 4.25 µM | 2.2 µM | 2.52 µM | 2.37 µM | 4.07 µM | 0.429 | 2.02 | 1.97 | 0.55 | 0.975 | 0.919 | 1.39
CC(C)[C@@H]1CC[C@]2(CO2)[C@@H]2C(=O)OCC(C(=O)O)=C[C@H]21 | > 100 µM | 2.3 µM | 0.667 µM | > 100 µM | 1 µM | > 100 µM | 0.47 µM | > 100 µM | > 100 µM | 0.155 µM | 0.851 µM | 8.41 µM | > 100 µM | 0.325 | 0.288 | 0.44 | 0.0462 | 0.286 | 1.35 | 0.402
COc1ccc(C(O)c2cc3c(N)c(C(=O)Nc4cccc5ccccc45)sc3nc2C)cc1 (stereo not given) | > 64 µM | > 100 µM | 0.416 µM | > 88 µM | 3.4 µM | > 100 µM | 2.53 µM | 7.5 µM | > 100 µM | – | – | > 100 µM | 5.93 µM | 0.318 | 0.319 | 1.58 | 0.157 | 0.385 | 0.562 | 0.332
Cc1ccc(NC(=O)c2cc(S(=O)(=O)Nc3nnc(-c4ccccc4)c(-c4ccccc4)n3)c(SCc3ccccc3)cc2Cl)cc1 | 75.7 µM | 57.4 µM | 21.4 µM | 56 µM | 19.4 µM | 42.2 µM | 17.5 µM | 35.1 µM | 92.2 µM | > 100 µM | 45.9 µM | 34.2 µM | > 100 µM | 28.5 | 25.4 | 25.7 | 42.4 | 19.8 | 18.1 | 26.4
ClCCOCCn1cnc2c(Cl)nc(Cl)nc21 | 25.1 µM | 9.05 µM | 16.3 µM | 33.8 µM | 14 µM | 29.3 µM | 4.68 µM | 15.4 µM | 35.5 µM | 50 µM | 28.2 µM | 29.1 µM | 19.2 µM | 10.8 | 2.51 | 17.3 | 20 | 14.7 | 12.8 | 5.57
CCN(CC)c1ccc2nc3ccc(=[N+](CC)CC)cc-3oc2c1 | 1.27 µM | 5.94 µM | 0.729 µM | 3.8 µM | 0.28 µM | – | 0.0318 µM | 0.362 µM | 1.28 µM | 0.329 µM | 21 µM | 1.27 µM | 8.12 µM | 0.0402 | 1.37 | 0.0463 | 0.0534 | 2.32 | 0.097 | 0.108
COCCN(Cc1ccc(F)cc1)c1ccc(CO)c(Cl)c1 | > 56.5 µM | > 100 µM | 0.152 µM | 0.353 µM | 3.83 µM | > 100 µM | 3.54 µM | 15.4 µM | 23 µM | > 100 µM | > 100 µM | > 100 µM | > 43.6 µM | 0.821 | 60.9 | 1.82 | 39.1 | 40.4 | 17.2 | 1.9
CCCCCC(=O)O[C@]1(C(C)=O)CCC2C3CCC4=CC(=O)CC[C@]4(C)C3CC[C@@]21C (stereo not given in full) | 4.23 µM | > 50.5 µM | 1.8 µM | 4.78 µM | 2.87 µM | 12.5 µM | 1.9 µM | 3.9 µM | 11.6 µM | 5.63 µM | 4.71 µM | 9.97 µM | 8.59 µM | 1.75 | 0.421 | 2.03 | 1.88 | 2.49 | 2.46 | 2.31
Cc1ccc(S(=O)(=O)NCCCCC(N)C(=O)O)cc1 (stereo not given) | > 100 µM | > 100 µM | – | > 100 µM | – | > 100 µM | – | > 100 µM | > 100 µM | > 100 µM | > 100 µM | > 100 µM | > 100 µM | – | – | – | – | – | – | –
Fc1ccc(NC(c2ccc(F)cc2)C2CCN(CCCCc3ccccc3)CC2)cc1 (stereo not given) | 2.75 µM | 3.9 µM | 1.78 µM | 3.6 µM | 1.49 µM | 2.86 µM | 1.57 µM | 2.91 µM | 3.22 µM | 3.47 µM | 2.97 µM | 3.86 µM | 3.09 µM | 1.41 | 1.7 | 1.41 | 1.65 | 1.55 | 1.78 | 1.71
